Consider one compound from patent US20050106729A1, “Gene transfer methods and compositions” (priority 2002, published 2005).

This test deals with MMP-7 deficient corneal epithelial cells co-infected with CFB-EGSH-MMP-7 and FB-ERV retroviruses (ecdysone receptor). The test can be described thus: Ponasterone A induction of MMP-7 expression in co-infected corneal epithelial cells (immunohistochemistry). The test is classed as cell-based, mouse. As to conditions: 10 μM ponasterone A; two days after induction; induced vs non-induced infected cells. An excerpt:
A cDNA encoding mouse pro matrix metalloproteinase-7 (MMP-7) was obtained from the I.M.A.G.E. clone consortium. Using a PCR-based cloning strategy, the cDNA was inserted into the multiple cloning site of pCFP-EGSH (a plasmid vector including retroviral packaging signals and a multiple cloning site downstream of an ecdysone hormone receptor responsive promoter) to make plasmid pCFB-EGSH-MMP-7. A second plasmid used in these experiments was pFB-ERV, a plasmid vector with retroviral packaging signals, and expressing the constituents of functional ecdysone hormone receptors capable of binding ponasterone A and activating the ecdysone responsive promoter in pCFP-EGSH.
Replication deficient retroviral supematants from pCGB-EGSH-MMP-7 and […] were produced separately. The plasmid for pCFB-EGSH-MMP-7 or pFB-EGSH was co-transfected using a liposomal method into HEK293 cells along with the plasmids pEnv (expressing a retroviral ecotropic envelope protein) and pGag-Pol (expressing the gag and pol genes required for assembly of infectious retroviral particles). […]
MMP-7 deficient corneal epithelial cells co-infected with CFB-EGSH-MMP-7 and FB-ERV replication deficient retroviruses were induced with 10 μM ponasterone A. an ecdysone analog and a ligand for the ecdysone receptor. […] Immunolocalization was determined using epifluorescence microscopy.

For `CC(C)CC[C@@H](O)[C@](C)(O)[C@H]1CC[C@@]2(O)C3=CC(=O)[C@@H]4C[C@@H](O)[C@@H](O)C[C@]4(C)[C@H]3CC[C@]12C` [ponasterone A], the “Expression of MMP-7 (immunolocalization, epifluorescence microscopy)” value is “Expression of MMP-7 was seen only in infected epithelial cells induced with ponasterone A”.
